4 compounds from ChEMBL document CHEMBL1909046, “DrugMatrix in vitro pharmacology data” can be followed below.

For one data set, the target named is Vasopressin V1a receptor (Homo sapiens, UniProt P37288). Also: in other assays of this panel Not Active means under 50% inhibition at 10 µM.
Vasopressin V1a receptor, sequence (P37288 whole entry): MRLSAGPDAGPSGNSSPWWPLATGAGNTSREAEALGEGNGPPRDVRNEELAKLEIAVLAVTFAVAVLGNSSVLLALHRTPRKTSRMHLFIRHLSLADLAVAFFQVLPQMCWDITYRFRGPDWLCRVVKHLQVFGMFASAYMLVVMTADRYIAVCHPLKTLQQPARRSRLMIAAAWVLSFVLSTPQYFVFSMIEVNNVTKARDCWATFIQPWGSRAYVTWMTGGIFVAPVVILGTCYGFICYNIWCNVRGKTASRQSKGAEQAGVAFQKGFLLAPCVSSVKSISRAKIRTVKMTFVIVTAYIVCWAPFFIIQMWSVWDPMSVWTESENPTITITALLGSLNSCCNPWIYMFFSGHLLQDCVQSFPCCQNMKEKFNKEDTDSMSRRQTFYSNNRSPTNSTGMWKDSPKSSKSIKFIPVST
Experiment: not given
The class given is cell membranes, Membrane. The settings on record: hek293.
By IC50 is commonly meant the concentration that inhibits the measured activity by half. Take CISPLATIN: the IC50 result is on record as “Not Active” and the Ki entry is given as “Not Active”.
Regarding `CN1CCC[C@H]1c1cccnc1` [NICOTINE], the IC50 result is on record as “Not Active”.
Same read-out and setting: the value for `Oc1c(Cl)cc(Cl)cc1Sc1cc(Cl)cc(Cl)c1O` [BITHIONOL] was “Not Active”.
The same measure, in the same setting: next, `Brc1ccccc1` [BROMOBENZENE]: “Not Active”.

Another data set has as its target T1, Cytochrome P450 2A6 (Homo sapiens, UniProt P11509). Also: in other assays of this panel Not Active means under 50% inhibition at 10 µM.
T1 sequence (P11509 whole entry): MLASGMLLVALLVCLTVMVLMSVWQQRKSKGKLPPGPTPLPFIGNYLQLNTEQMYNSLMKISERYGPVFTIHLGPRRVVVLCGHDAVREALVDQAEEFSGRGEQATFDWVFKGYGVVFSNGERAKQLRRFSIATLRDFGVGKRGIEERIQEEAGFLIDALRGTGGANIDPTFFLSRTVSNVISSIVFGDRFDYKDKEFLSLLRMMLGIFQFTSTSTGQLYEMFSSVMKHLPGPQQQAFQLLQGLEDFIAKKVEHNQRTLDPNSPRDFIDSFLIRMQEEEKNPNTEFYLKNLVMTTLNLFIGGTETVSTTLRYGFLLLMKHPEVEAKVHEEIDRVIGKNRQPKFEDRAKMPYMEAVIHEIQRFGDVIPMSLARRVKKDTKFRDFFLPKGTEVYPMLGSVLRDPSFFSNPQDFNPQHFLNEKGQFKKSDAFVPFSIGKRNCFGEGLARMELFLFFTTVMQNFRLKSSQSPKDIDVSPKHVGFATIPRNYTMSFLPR
Experiment: not given
The settings on record: bti-tn-5b1-4.
As for CISPLATIN, the IC50 result is listed as “Not Active” and the Ki entry is recorded as “Not Active”.
In the case of `CN1CCC[C@H]1c1cccnc1` [NICOTINE], the IC50 entry was “Not Active” and the Ki result is given as “Not Active”.
As for `Oc1c(Cl)cc(Cl)cc1Sc1cc(Cl)cc(Cl)c1O` [BITHIONOL], the IC50 entry is given as “Not Active” and the Ki entry is listed as “Not Active”.
On to `Brc1ccccc1` [BROMOBENZENE], for which the IC50 result is recorded as “Not Active” and the Ki entry is “Not Active”.

The next data set has as its target T2, Neuropeptide Y receptor type 2 (Homo sapiens, UniProt P49146). Also: in other assays of this panel Not Active means under 50% inhibition at 10 µM.
T2 sequence (P49146 whole entry): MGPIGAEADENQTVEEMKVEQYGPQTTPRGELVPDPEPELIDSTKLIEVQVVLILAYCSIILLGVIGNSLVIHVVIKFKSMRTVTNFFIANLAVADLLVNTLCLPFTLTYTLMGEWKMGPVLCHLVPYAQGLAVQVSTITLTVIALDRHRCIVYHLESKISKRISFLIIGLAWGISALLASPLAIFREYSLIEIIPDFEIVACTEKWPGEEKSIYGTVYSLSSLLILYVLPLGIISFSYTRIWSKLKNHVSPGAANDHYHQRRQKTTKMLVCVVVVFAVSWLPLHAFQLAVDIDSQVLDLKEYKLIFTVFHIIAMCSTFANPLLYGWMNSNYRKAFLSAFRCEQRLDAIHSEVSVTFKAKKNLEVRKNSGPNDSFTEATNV
Experiment: not given
It is filed as cell membranes, Membrane. The settings on record: kan-ts.
Consider CISPLATIN, for which the IC50 result is given as “Not Active” and the Ki entry is reported as “Not Active”.
Turning to `CN1CCC[C@H]1c1cccnc1` [NICOTINE], the IC50 entry is “Not Active”.
Still for that read-out and setting: next, `Oc1c(Cl)cc(Cl)cc1Sc1cc(Cl)cc(Cl)c1O` [BITHIONOL]: “Not Active”; `Brc1ccccc1` [BROMOBENZENE]: “Not Active”.

For another data set, the target named is Acetylcholinesterase (Homo sapiens, UniProt P22303). Put plainly: DRUGMATRIX: Acetylcholinesterase enzyme inhibition (substrate: acetylthiocholine). The class given is cell-based, HEK293. The note with it: hek293; Not Active = under 50% inhibition at 10 µM.
Acetylcholinesterase, sequence (P22303 whole entry): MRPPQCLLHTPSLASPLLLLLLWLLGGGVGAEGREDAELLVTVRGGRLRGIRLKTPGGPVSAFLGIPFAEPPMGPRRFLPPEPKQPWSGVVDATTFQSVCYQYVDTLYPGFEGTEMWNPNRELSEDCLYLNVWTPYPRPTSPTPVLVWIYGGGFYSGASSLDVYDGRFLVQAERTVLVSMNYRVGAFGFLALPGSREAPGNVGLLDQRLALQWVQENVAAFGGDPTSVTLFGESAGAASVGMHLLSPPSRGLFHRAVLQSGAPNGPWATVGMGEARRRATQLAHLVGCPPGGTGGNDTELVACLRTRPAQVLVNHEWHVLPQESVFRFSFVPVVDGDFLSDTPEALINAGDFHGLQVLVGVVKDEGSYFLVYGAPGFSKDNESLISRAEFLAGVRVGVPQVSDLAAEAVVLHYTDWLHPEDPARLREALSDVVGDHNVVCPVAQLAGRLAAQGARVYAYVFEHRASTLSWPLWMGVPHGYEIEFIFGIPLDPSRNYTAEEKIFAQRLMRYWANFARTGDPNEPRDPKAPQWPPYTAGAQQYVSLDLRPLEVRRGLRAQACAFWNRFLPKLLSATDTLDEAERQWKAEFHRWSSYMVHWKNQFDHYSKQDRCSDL
Turning to CISPLATIN, the IC50 result is given as “Not Active” and the Ki result is reported as “Not Active”.
For the compound `CN1CCC[C@H]1c1cccnc1` [NICOTINE], the IC50 result was “Not Active”.
On the same count and under the same terms, the value for `Oc1c(Cl)cc(Cl)cc1Sc1cc(Cl)cc(Cl)c1O` [BITHIONOL] was “Not Active”; that for `Brc1ccccc1` [BROMOBENZENE] was “Not Active”.

For a further data set, the target named is Cytochrome P450 3A4 (Homo sapiens, UniProt P08684). Also: in other assays of this panel Not Active means under 50% inhibition at 10 µM.
Cytochrome P450 3A4, sequence (P08684 whole entry): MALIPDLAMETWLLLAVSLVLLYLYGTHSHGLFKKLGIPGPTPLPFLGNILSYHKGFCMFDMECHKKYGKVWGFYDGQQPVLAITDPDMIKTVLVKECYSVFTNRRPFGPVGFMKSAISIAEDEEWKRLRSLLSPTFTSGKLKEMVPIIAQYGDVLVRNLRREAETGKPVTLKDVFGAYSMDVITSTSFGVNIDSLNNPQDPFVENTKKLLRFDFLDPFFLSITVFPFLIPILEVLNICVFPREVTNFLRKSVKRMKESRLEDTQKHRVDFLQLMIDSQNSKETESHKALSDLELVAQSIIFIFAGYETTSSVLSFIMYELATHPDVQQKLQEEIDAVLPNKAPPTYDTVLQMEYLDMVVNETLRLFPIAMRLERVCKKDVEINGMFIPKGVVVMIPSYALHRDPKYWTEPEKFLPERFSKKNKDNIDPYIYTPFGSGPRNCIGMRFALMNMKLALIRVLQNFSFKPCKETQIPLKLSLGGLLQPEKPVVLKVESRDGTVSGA
Experiment: not given
The settings on record: bti-tn-5b1-4.
Consider CISPLATIN, for which the IC50 result is reported as “Not Active” and the Ki result is on record as “Not Active”.
Turning to `CN1CCC[C@H]1c1cccnc1` [NICOTINE], the IC50 result is listed as “Not Active” and the Ki result is “Not Active”.
Take `Oc1c(Cl)cc(Cl)cc1Sc1cc(Cl)cc(Cl)c1O` [BITHIONOL]: the IC50 entry is listed as “Not Active” and the Ki entry is “Not Active”.
On to `Brc1ccccc1` [BROMOBENZENE], for which the IC50 entry was “Not Active” and the Ki result is “Not Active”.

In another data set the target is Voltage-gated inwardly rectifying potassium channel KCNH2 (Homo sapiens, UniProt Q12809). Also: in other assays of this panel Not Active means under 50% inhibition at 10 µM.
Voltage-gated inwardly rectifying potassium channel KCNH2, sequence (Q12809 whole entry): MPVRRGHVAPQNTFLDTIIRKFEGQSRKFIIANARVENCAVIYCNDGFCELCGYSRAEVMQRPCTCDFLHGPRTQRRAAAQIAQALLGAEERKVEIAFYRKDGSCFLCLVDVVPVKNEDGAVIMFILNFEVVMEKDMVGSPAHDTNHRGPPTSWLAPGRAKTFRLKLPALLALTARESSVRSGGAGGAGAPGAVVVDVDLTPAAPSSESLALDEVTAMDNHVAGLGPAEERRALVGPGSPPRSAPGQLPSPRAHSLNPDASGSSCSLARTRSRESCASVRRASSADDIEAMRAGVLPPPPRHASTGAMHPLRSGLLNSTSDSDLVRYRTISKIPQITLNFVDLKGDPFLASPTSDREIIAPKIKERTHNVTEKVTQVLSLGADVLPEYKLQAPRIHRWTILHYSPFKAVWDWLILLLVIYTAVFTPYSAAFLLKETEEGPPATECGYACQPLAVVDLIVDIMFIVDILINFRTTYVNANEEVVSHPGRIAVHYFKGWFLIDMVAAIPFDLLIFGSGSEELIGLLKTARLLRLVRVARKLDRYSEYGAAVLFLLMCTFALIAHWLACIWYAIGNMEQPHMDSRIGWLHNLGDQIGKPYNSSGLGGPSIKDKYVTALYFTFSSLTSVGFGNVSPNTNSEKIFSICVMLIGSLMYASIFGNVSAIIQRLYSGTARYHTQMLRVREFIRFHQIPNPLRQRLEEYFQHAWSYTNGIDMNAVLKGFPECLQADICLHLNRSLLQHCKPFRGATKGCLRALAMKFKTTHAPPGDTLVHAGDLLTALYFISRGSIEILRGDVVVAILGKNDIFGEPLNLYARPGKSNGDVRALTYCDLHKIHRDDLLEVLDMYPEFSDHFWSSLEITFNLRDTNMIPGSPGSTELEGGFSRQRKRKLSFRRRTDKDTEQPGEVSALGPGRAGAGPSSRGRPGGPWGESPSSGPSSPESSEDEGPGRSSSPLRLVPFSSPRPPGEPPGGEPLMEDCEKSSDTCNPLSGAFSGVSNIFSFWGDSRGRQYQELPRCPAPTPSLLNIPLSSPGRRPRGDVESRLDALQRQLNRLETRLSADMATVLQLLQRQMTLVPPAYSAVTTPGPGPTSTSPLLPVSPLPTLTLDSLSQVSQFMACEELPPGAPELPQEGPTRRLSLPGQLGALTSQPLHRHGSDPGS
Experiment: not given
The note with it: hek293.
As to CISPLATIN, the IC50 entry is reported as “Not Active” and the Ki entry was “Not Active”.
With `CN1CCC[C@H]1c1cccnc1` [NICOTINE], the IC50 result is “Not Active” and the Ki result is recorded as “Not Active”.
For `Oc1c(Cl)cc(Cl)cc1Sc1cc(Cl)cc(Cl)c1O` [BITHIONOL], the IC50 result is listed as “Not Active” and the Ki result is given as “Not Active”.
For the compound `Brc1ccccc1` [BROMOBENZENE], the IC50 result is reported as “Not Active” and the Ki result is given as “Not Active”.

A further data set deals with T3, Thromboxane-A synthase (Homo sapiens, UniProt P24557).
T3 sequence (P24557 whole entry): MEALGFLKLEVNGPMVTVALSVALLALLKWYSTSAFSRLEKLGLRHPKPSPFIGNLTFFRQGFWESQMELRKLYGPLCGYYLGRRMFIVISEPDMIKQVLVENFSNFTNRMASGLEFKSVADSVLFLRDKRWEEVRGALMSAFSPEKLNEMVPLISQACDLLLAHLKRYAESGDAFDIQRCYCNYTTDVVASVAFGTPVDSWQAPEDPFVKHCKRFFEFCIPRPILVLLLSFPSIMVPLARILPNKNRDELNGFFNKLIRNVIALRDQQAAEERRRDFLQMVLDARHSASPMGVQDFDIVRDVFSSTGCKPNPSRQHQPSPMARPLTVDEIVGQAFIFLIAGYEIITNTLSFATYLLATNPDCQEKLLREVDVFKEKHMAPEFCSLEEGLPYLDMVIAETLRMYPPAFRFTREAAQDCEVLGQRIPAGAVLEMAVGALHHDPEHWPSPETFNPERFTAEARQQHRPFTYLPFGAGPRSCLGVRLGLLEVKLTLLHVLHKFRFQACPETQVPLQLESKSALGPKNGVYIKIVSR
The data set is described as follows: biochemical. It is filed as tissue-based, Platelet. The note with it: platelet.
On to `CN1CCC[C@H]1c1cccnc1` [NICOTINE], for which the IC50 result is on record as “Not Active”.
Same read-out and setting: the value for `Brc1ccccc1` [BROMOBENZENE] was “Not Active”.

Still in this data set, the particulars now being: platelet; read-out: IC50.
For the compound CISPLATIN, the IC50 is 9.35 µM.

Staying with this data set, now noted: read-out: IC50.
In the case of `Oc1c(Cl)cc(Cl)cc1Sc1cc(Cl)cc(Cl)c1O` [BITHIONOL], the 50% inhibitory concentration (IC50) came out at 1.84 µM.

The target of the next data set is Cytochrome P450 2C19 (Homo sapiens, UniProt P33261). Also: in other assays of this panel Not Active means under 50% inhibition at 10 µM.
Cytochrome P450 2C19, sequence (P33261 whole entry): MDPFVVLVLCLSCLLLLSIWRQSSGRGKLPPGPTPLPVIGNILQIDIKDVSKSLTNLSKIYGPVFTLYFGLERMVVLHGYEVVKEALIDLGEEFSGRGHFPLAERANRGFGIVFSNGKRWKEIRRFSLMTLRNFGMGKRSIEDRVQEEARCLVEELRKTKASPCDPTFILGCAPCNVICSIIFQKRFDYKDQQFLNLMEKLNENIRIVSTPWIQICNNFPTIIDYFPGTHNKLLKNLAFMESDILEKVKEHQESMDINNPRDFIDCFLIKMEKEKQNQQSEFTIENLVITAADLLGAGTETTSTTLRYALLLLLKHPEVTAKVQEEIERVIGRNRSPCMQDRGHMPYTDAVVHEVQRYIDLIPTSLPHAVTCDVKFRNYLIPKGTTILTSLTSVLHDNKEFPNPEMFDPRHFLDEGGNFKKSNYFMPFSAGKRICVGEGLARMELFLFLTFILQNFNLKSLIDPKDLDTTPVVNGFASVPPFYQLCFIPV
Experiment: not given
The settings on record: bti-tn-5b1-4.
For the compound CISPLATIN, the IC50 entry is “Not Active” and the Ki result is recorded as “Not Active”.
On to `CN1CCC[C@H]1c1cccnc1` [NICOTINE], for which the IC50 result is given as “Not Active” and the Ki result was “Not Active”.
Consider `Oc1c(Cl)cc(Cl)cc1Sc1cc(Cl)cc(Cl)c1O` [BITHIONOL], for which the IC50 entry was “Not Active” and the Ki result is listed as “Not Active”.
Turning to `Brc1ccccc1` [BROMOBENZENE], the IC50 entry was “Not Active” and the Ki result is on record as “Not Active”.

The target in another data set is T4, Cytochrome P450 1A2 (Homo sapiens, UniProt P05177). Also: in other assays of this panel Not Active means under 50% inhibition at 10 µM.
T4 sequence (P05177 whole entry): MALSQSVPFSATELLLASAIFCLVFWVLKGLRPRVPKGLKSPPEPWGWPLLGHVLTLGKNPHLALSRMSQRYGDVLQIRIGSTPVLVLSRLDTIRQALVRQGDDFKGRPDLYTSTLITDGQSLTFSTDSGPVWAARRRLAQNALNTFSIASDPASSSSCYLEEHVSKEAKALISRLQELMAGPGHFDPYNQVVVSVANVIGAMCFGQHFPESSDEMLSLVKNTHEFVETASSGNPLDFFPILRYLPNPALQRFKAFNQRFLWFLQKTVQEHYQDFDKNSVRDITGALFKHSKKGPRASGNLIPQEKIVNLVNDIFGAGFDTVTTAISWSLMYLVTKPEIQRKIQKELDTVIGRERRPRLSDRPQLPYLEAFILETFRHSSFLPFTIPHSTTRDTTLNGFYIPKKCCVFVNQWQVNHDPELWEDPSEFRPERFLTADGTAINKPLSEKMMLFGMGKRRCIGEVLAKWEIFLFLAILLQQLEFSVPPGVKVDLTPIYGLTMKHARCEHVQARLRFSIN
Experiment: not given
The settings on record: bti-tn-5b1-4.
As to CISPLATIN, the IC50 entry is reported as “Not Active” and the Ki result was “Not Active”.
As for `CN1CCC[C@H]1c1cccnc1` [NICOTINE], the IC50 entry is recorded as “Not Active” and the Ki entry is given as “Not Active”.
With `Oc1c(Cl)cc(Cl)cc1Sc1cc(Cl)cc(Cl)c1O` [BITHIONOL], the IC50 entry is on record as “Not Active” and the Ki entry is “Not Active”.
`Brc1ccccc1` [BROMOBENZENE]: the IC50 result is “Not Active” and the Ki entry is “Not Active”.

For the next data set, the target named is Carbonic anhydrase 2 (Homo sapiens, UniProt P00918). Put plainly: DRUGMATRIX: Carbonic Anhydrase II enzyme inhibition (substrate: 4-Nitrophenyl acetate (4-NPA)). It is filed as tissue-based, Erythrocyte. The note with it: erythrocyte; Not Active = under 50% inhibition at 10 µM.
In the case of CISPLATIN, the IC50 entry was “Not Active” and the Ki result is listed as “Not Active”.
As for `CN1CCC[C@H]1c1cccnc1` [NICOTINE], the IC50 entry is listed as “Not Active”.
Same read-out and setting: next, `Oc1c(Cl)cc(Cl)cc1Sc1cc(Cl)cc(Cl)c1O` [BITHIONOL]: “Not Active”.
The same measure, in the same setting: next, `Brc1ccccc1` [BROMOBENZENE]: “Not Active”.
